For data set [1] the following is noted: cited from earlier work.
For data set [2] the following is noted: cited from earlier work. The source holds these as a separate data set.
Data set [3] is described as follows: Stabilization experiments with LECIGON, accelerated stability study at 25° C. for 12 days. The class given is physicochemical. As to conditions: all combinations of Table 6. How it is done:
HPLC—Agilent 1100 with DAD detector and cooled injector; OpenLAB CDS Chemstation C.01.05 (Agilent Technologies Inc., Santa Clara, Calif., U.S.A.).
As reference product, LECIGON™ having no stabilizing modification was used.
The following stabilizing modifications of the LECIGON™ composition were tested, the corresponding experimental compositions (“Exp.”) in Table 4 above being given within parentheses:
• a) 0.1% ascorbic acid (Exp. 5) • b) 0.5% citrate buffer (Exp. 12) • c) 0.5% citric acid (Exp. 4) 3. Removal of oxygen • nitrogen gas (Exp. 15) 4. Removal of metal ions • 0.05% EDTA (Exp. 3) 5. Combination of reduced pH and anti-oxidant (Exp. 13) 6. Combination of anti-oxidant and removal of oxygen • a) 0.1% ascorbic acid and 0.05% EDTA (Exp. 14) • b) 0.5% citric acid and 0.05% EDTA (Exp. 10) 7. Enclosure in an aluminium bag (Exp. 8).
The results are ranked with respect to reduction of hydrazine (DHPA, RRT 7.1). […] Levodopa was stable in all combinations and is therefore not included in the table. In the table, “Carb” is carbidopa, and “Ent” is entacapone.

For data set [4] the following is noted: intravenous administration (3 mg/kg); cited from earlier work.

In the case of `C[C@@](Cc1ccc(O)c(O)c1)(NN)C(=O)O` [Carbidopa, (−)-L-α-hydrazino-α-methyl-β-(3,4-dihydroxybenzene) propanoic acid monohydrate], in data set [1], the solubility in water result is listed as “slightly soluble in water”.
For the molecule `N[C@@H](Cc1ccc(O)c(O)c1)C(=O)O` [Levodopa, (−)-L-α-amino-β-(3,4-dihydroxybenzene) propanoic acid], the “metabolized to dopamine before levodopa reaches the brain” value in data set [2] (intake of levodopa alone) is listed as “more than 90%”. Besides, the bioavailability in data set [2] (levodopa via DUODOPA gel, same as in a tablet) is 81-98%. In data set [3], the “Stability of levodopa in the gel combinations” value is “stable”. In addition, the solubility in water result in data set [1] is “slightly soluble in water”.
For the molecule `Cc1ccc(C(=O)c2cc(O)c(O)c([N+](=O)[O-])c2)cc1` [Tolcapone, (3,4-Dihydroxy-5-nitrophenyl)(4-methylphenyl)methanone], in data set [4], the “elimination half-life (t1/2β)” value was 2.9 h.
